Tests used:
[1] = system: indomethacin-induced ulcers (glandular stomach) of rats; test: therapeutic effect against indomethacin ulcers of rats (method of Somogi et al.); type: in vivo, male rats of Wistar strain; details: indomethacin 25 mg/kg, 100 mg/kg p.o., 7 hours
Description: The complexes prepared in Examples 1 and 2, referred to as ATM and AEGCg, respectively, hereinbelow, were tested for the therapeutic activity against gastric ulcers of rats such as pylorus-ligated or indomethacin-induced ulcers.
Separately, according to the method of Somogi, et al. disclosed in J. Pharm. Pharmac., volume 21, page 122 (1969), a group of light male rats of Wistar strain each having a body weight of about 200 g were used to test the therapeutic effect of the complexes against indomethacin ulcers. Each of the rats belonging to the test group was, after 24 hours of fasting, orally administered with ATM or AEGCg suspended in a 5% solution of gum arabic followed by oral administration of indomethacin in a dose of 25 mg/kg body weight after 30 minutes from the administration of the ATM or AEGCg. After 7 hours abstinence from food and water, the rat was killed and the stomach was excised and incised along the greater curvature to measure the length of the ulcers appearing on the glandular stomach. The overall length of the ulcers is given in Table 2 below as the ulcer index. The control group was treated in the same manner as above excepting ATM or AEGCg in the gum arabic solution.

[2] = acute oral toxicity; design: species or system male mice of ddY strain; details: mouse, in vivo, male ddY mice, fasted overnight, read-out: 50% lethal dose (LD50)
Excerpt: Lastly, ATM and AEGCg were subjected to the test of acute toxicity by male mice of ddY strain each having a body weight of 20 to 25 g. After fasting overnight, the mice were orally administered with ATM or AEGCg with varied doses to determine the 50% lethal dose (LD50).

[3] = system: pylorus-ligated ulcers (forestomach) of rats; test: therapeutic activity against pylorus-ligated gastric ulcers of rats (method of Shay et al.); type: in vivo, male rats of Wistar strain; details: 100 mg/kg p.o., 18 hours
Description: After fasting 48 hours each rat was put to etherization and the stomach was ligated at the pyloric part. Immediately after the ligation, the rat was orally administered with a suspension of the ATM or AEGCg in a 5% solution of gum arabic. The control group was fed only the solution of gum arabic without either ATM or AEGCg. After 18 hours of abstinence from food and water, the rat was killed and the stomach was excised and incised along the greater curvature to examine the condition of ulcer appearing on the forestomach.

[4] = system: gastric juice / peptic activity in rats; test: antipeptic activity or effect on secretion of gastric juice in pylorus-ligated rats (method of Shay et al.); type: in vivo, male rats of Wistar strain; details: 200 mg/kg p.o., 6 hours
Description: Further, the complexes were subjected to the test for the antipeptic activity or the effect on the secretion of gastric juice in rats according to the method of Shay, et al. Thus, a group of eight male rats of Wistar strain each having a body weight of about 200 g were used as the test animals. After 24 hours of fasting, the stomach of each rat was ligated at the pyloric part under etherization. Immediately after the ligation, the rat was orally administered with ATM or AEGCg suspended in a 5% solution of gum arabic. After 6 hours of abstinence from food and water, the rat was again etherized to take out the stomach as ligated at the cardiac end. The gastric juice in the stomach was put to centrifugal separation to give a supernatant of which the volume, overall acidity and overall peptic activity were measured to give the results shown in Table 3.

CN/C(=N/CCSCc1nc[nH]c1C)NC#N [Cimetidine]
Ulcer index (mm) ([1]; overall length of ulcers): 13.3 ± 2.8 mm
Suppression (%) ([1]; ulcer index vs control): 62.4%

O=C(O[C@@H]1Cc2c(O)cc(O)cc2O[C@@H]1c1cc(O)c(O)c(O)c1)c1cc(O)c(O)c(O)c1 [EGCg, (-)-epigallocatechin gallate]
LD50 [2]: 2500 mg/kg

Sucralfate
Ulcer index [3]: 2.86 ± 0.40
Suppression (%) ([3]; ulcer index vs control): 41.5%
Overall acidity (mEq/liter) [4]: 85.4 ± 3.8 mEq/liter
Peptic activity (mg tyrosine) [4]: 585.3 ± 68.0 mg tyrosine
Volume of gastric juice (ml/rat) [4]: 7.98 ± 0.39 ml/rat
Suppression (%) ([4]; peptic activity vs control): 35.0%
